Measurements reported in ChEMBL document CHEMBL4706637, “Design, synthesis and biological evaluation of thioether-containing lenalidomide and pomalidomide derivatives with anti-multiple myeloma activity” (Eur J Med Chem, 2021).
Each block holds one compound with its values, some of them ahead of it. Active and inactive are the calls of the source. The rule behind the calls is not given here.

What was measured:
[1] = target: Zinc finger protein Aiolos (Homo sapiens) (UniProt Q9UKT9); assay: Induction of IKZF3 degradation in human MM1.S cells assessed as reduction in IKZF3 level incubated for 12 hrs by immunoblot analysis; assay type: cell-based; conditions: dose 0.02-2 µM
[2] = target: DNA-binding protein Ikaros (Homo sapiens) (UniProt Q13422); assay: Induction of IKZF1 degradation in human MM1.S cells assessed as reduction in IKZF1 level incubated for 12 hrs by immunoblot analysis; assay type: cell-based; conditions: dose 0.02-2 µM
[3] = target: Zinc finger protein Aiolos (Homo sapiens) (UniProt Q9UKT9); assay: Induction of IKZF3 degradation in human MM1.S cells assessed as reduction in IKZF3 level at 0.02 to 2 uM incubated for 12 hrs by immunoblot analysis; assay type: cell-based; conditions: dose 0.02-2 µM
[4] = target: DNA-binding protein Ikaros (Homo sapiens) (UniProt Q13422); assay: Induction of IKZF1 degradation in human MM1.S cells assessed as reduction in IKZF1 level at 0.02 to 2 uM incubated for 12 hrs by immunoblot analysis; assay type: cell-based; conditions: dose 0.02-2 µM
MM1.S [5] = assay: Antitumor activity against human MM1.S cells xenografted in CB17-SCID mouse assessed as reduction in tumor weight at 60 mg/kg, po qd for 14 days and measured after 14 days; assay type: functional; conditions: 336 h, time 14 day
[6] = Hepatic intrinsic clearance in human; assay type: ADME
MM1.S [7] = assay: Antiproliferative activity against human MM1.S cells assessed as reduction in cell growth measured after 7 days culturing by CellTiter 96 Aqueous non-radioactive cell proliferation assay; assay type: functional, cell-based; conditions: 168 h
[8] = Half-life in human liver microsomes; assay type: ADME, Microsome
[9] = Intrinsic clearance in human; assay type: ADME
[10] = Intrinsic clearance in human liver microsomes measured per gm of protein; assay type: ADME, Microsome
[11] = Metabolic stability in human liver microsomes assessed as parent compound remaining; assay type: ADME, Microsome

Zinc finger protein Aiolos (Homo sapiens), sequence (Q9UKT9 whole entry): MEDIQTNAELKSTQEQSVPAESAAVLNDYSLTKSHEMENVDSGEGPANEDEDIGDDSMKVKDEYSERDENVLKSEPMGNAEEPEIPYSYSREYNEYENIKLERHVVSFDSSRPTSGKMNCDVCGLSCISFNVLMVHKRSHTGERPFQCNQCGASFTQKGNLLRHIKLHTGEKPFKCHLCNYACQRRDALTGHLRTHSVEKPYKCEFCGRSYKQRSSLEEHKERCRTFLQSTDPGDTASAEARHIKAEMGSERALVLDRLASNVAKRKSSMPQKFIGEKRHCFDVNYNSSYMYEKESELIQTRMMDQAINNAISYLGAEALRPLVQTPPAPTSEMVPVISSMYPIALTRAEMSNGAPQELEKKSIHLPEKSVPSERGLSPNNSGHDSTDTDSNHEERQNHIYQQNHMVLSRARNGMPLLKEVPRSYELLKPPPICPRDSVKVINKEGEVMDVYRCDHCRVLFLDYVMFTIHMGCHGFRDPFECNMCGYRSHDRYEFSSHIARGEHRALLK
DNA-binding protein Ikaros (Homo sapiens), sequence (Q13422 whole entry): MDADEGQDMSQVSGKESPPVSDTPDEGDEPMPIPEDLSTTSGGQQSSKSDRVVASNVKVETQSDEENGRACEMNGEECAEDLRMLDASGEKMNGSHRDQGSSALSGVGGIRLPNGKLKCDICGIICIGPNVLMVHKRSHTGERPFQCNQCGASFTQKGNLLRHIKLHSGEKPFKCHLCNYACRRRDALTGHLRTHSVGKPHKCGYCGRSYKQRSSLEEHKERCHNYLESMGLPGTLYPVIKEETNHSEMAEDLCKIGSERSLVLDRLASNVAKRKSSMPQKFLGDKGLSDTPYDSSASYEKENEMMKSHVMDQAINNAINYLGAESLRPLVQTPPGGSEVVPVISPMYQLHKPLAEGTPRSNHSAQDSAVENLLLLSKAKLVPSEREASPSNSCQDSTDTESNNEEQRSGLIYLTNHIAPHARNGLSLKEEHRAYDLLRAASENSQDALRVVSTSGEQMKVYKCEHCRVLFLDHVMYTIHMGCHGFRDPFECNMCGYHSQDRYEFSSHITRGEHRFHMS

Activity [1]: Dose-dependent effect
Activity [2]: Dose-dependent effect
SMILES: COc1ccccc1Sc1cccc2c1CN(C1CCC(=O)NC1=O)C2=O (stereo unspecified)

Activity [3]: Active
Activity [4]: Active
SMILES: O=C1CCC(N2Cc3c(Sc4ccc(F)cc4)cccc3C2=O)C(=O)N1 (stereo unspecified)

CLH [6]: 127 mL/min
IC50 (MM1.S [7]): 81 nM
half-life [8]: 19.3 h
CL [9]: 138.7 mL/min
CLH [10]: 1.8 mL/min/g
Stabilty [11]: 91.5%
SMILES: Nc1cccc2c1CN(C1CCC(=O)NC1=O)C2=O (stereo unspecified) [LENALIDOMIDE]
inhibition in vivo at 60 mg/kg/day (MM1.S [5]): 62.6%
